According to patent US10100058B2, “Fused heterocyclic compounds as CaM kinase inhibitors” (Gilead Sciences, Inc., priority 2016, dated 2018):

biological target: recombinant CaMKIIδ (Homo sapiens (Human), UniProt Q13557); assay: CaMKIIδ biochemical assay (HTRF); conditions: 10 pM CaMKIIδ, 110 nM calmodulin, 12 μM ATP, 1 hour; read-out: CAMKIID-HTRF-384V2 (IC50 - nM)
Description: CaMKIIδ Biochemical Assay
The biochemical activity of recombinant CaMKIIδ was measured by monitoring the phosphorylation of a target peptide using Homogenous Time Resolved Fluorescence (HTRF) technology from CisBio Bioassays.

Row | Compound | IC50 [nM]
1 | C[C@H](N)CNC(=O)c1cc(-c2cnn3ccc(-c4cccs4)nc23)nc(N2CC(O)C2)c1 [Example 168, (S)—N-(2-aminopropyl)-2-(3-hydroxyazetidin-1-yl)-6-(5-(thiophen-2-yl)pyrazolo[1,5-a]pyrimidin-3-yl)isonicotinamide] | 18.1
2 | CC1(C)CNC1CNC(=O)c1ccnc(-c2cnn3ccc(-c4ccccc4)nc23)c1 (stereo not shown) [Example 41, N-((3,3-dimethylazetidin-2-yl)methyl)-2-(5-phenylpyrazolo[1,5-a]pyrimidin-3-yl)isonicotinamide] | 119
3 | CCNC(CC)CNC(=O)c1ccnc(-c2cnn3ccc(-c4ccccc4)nc23)c1 (stereo not shown) [Example 54, N-(2-(ethylamino)butyl)-2-(5-phenylpyrazolo[1,5-a]pyrimidin-3-yl)isonicotinamide] | 13.4
4 | CCN[C@@H](C)CNC(=O)c1cc(-c2cnn3ccc(-c4cccs4)nc23)nc(N2CC(O)C2)c1 [Example 169, (S)—N-(2-(ethylamino)propyl)-2-(3-hydroxyazetidin-1-yl)-6-(5-(thiophen-2-yl)pyrazolo[1,5-a]pyrimidin-3-yl)isonicotinamide] | 9.11
5 | CCN[C@@H](CO)CNC(=O)c1ccnc(-c2cnn3ccc(-c4ccccc4)nc23)c1 [Example 59, (R)—N-(2-(ethylamino)-3-hydroxypropyl)-2-(5-phenylpyrazolo[1,5-a]pyrimidin-3-yl)isonicotinamide] | 5.34
6 | CCN(CC)CCNC(=O)c1cc(-c2cnn3ccc(-c4cccs4)nc23)nc(N2CC[C@H]2C(=O)NC)c1 [Example 360, (S)—N-(2-(diethylamino)ethyl)-2-(2-(methylcarbamoyl)azetidin-1-yl)-6-(5-(thiophen-2-yl)pyrazolo[1,5-a]pyrimidin-3-yl)isonicotinamide] | 2.98

The remaining lines, values ahead:

Row | IC50 [nM] | Compound
7 | 0.29 | CCN(CC)[C@@H](C)CNC(=O)c1cc(-c2cnn3ccc(-c4ccns4)nc23)nc(N2CC(OC)C2)c1 [Example 176, (S)—N-(2-(diethylamino)propyl)-2-(5-(isothiazol-5-yl)pyrazolo[1,5-a]pyrimidin-3-yl)-6-(3-methoxyazetidin-1-yl)isonicotinamide]
8 | 13 | CCN[C@@H](C)CNC(=O)c1cc(-c2cnn3ccc(-c4cccs4)nc23)nc(N2CC(OC)C2)c1 [Example 173, (S)—N-(2-(ethylamino)propyl)-2-(3-methoxyazetidin-1-yl)-6-(5-(thiophen-2-yl)pyrazolo[1,5-a]pyrimidin-3-yl)isonicotinamide]
9 | 1.87 | CCN(CC)[C@@H](C)CNC(=O)c1cc(-c2cnn3ccc(-c4cccs4)nc23)nc(-n2cncn2)c1 [Example 252, (S)—N-(2-(diethylamino)propyl)-2-(5-(thiophen-2-yl)pyrazolo[1,5-a]pyrimidin-3-yl)-6-(1H-1,2,4-triazol-1-yl)isonicotinamide]
10 | 0.27 | CCCN(CC)[C@@H](C)CNC(=O)c1cc(-c2cnn3ccc(-c4cccs4)nc23)nc(N2CC[C@H]2C(=O)NC)c1 [Example 357, N—((S)-2-(ethyl(propyl)amino)propyl)-2-((S)-2-(methylcarbamyl)azetidin-1-yl)-6-(5-(thiophen-2-yl)pyrazolo[1,5-a]pyrimidin-3-yl)isonicotinamide]
11 | 0.26 | CCN(CC)[C@@H](C)CNC(=O)c1cc(OC[C@H]2CCCO2)nc(-c2cnn3ccc(-c4cccs4)nc23)c1 [Example 343, N—((S)-2-(diethylamino)propyl)-2-(((R)-tetrahydrofuran-2-yl)methoxy)-6-(5-(thiophen-2-yl)pyrazolo[1,5-a]pyrimidin-3-yl)isonicotinamide]
12 | 1.05 | CCN(CC)[C@@H](C)CNC(=O)c1cc(OCc2cccnc2)nc(-c2cnn3ccc(-c4cccs4)nc23)c1 [Example 354, (S)—N-(2-(diethylamino)propyl)-2-(pyridin-3-ylmethoxy)-6-(5-(thiophen-2-yl)pyrazolo[1,5-a]pyrimidin-3-yl)isonicotinamide]
13 | 14.6 | CCCN[C@@H](C)CNC(=O)c1ccnc(-c2cnn3ccc(-c4cccs4)nc23)c1 [Example 23, (S)—N-(2-(propylamino)propyl)-2-(5-(thiophen-2-yl)pyrazolo[1,5-a]pyrimidin-3-yl)isonicotinamide]
